The source of these data is patent US8900783B2, “Electrophotographic photoreceptor, process cartridge, and image forming apparatus” (Fuji Xerox Co., Ltd., priority 2013, dated 2014).

This data set is described as follows: Evaluation on solubility with respect to solvent. The format is physicochemical. The note with it: organic solvent or mixture, thermodynamic from solid, stirred for one hour, visually checked. The procedure:
Here, Compound (C) is a specific non-charge transporting compound which is not the specific position isomer mixture.
First, the Exemplary compounds and Compound (C) are respectively dissolved in tetrahydrofuran, and solubility of the solution is evaluated as follows.
1 g of Compound (C) is added to 10 ml of tetrahydrofuran at 20° C., the mixture is stirred for one hour, and solubility thereof is visually checked. A case where Compound (C) is dissolved is evaluated as A, a case where an insoluble part is slightly observed is evaluated as B, and a case where the solution yields white turbidity is evaluated as C.
In addition, solubility thereof when the solvent is changed from tetrahydrofuran to toluene, xylene, dichloroethane, chloroform, and butyl acetate is evaluated.

Molecules are shown by their SMILES. Read-outs that look alike come from different tables or passages of the source. Bounds are passed on as bounds.

The solubility is the concentration that dissolves in the medium under given conditions. Regarding `C=Cc1ccc(COc2ccc(C(C)(c3ccc(OCc4ccc(C=C)cc4)cc3)c3ccc(OCc4ccc(C=C)cc4)cc3)cc2)cc1` [Compound (C)], the solubility at 1 h reads like this: (1 g added to 10 ml of butyl acetate at 20° C., read-out: Evaluation on solubility Butyl acetate) under 100 mg/mL; (1 g added to 10 ml of chloroform at 20° C., read-out: Evaluation on solubility Chloroform) over 100 mg/mL; (1 g added to 10 ml of dichloroethane at 20° C., read-out: Evaluation on solubility Dichloroethane) over 100 mg/mL; (1 g added to 10 ml of tetrahydrofuran at 20° C., read-out: Evaluation on solubility Tetrahydrofuran) over 100 mg/mL; (1 g added to 10 ml of toluene at 20° C., read-out: Evaluation on solubility Toluene) under 100 mg/mL; (1 g added to 10 ml of xylene at 20° C., read-out: Evaluation on solubility Xylene) under 100 mg/mL.
